Assays:
foxtail, giant [1] = assay: Test C postemergence; format: in vivo, Setaria faberii; conditions: for Plant response rating (scale of 0 to 100 where 0 is no effect and 100 is complete control), Foxtail, Giant: Postemergence, 31 g ai/ha, visually evaluated after 13 to 15 days; for Foxtail, Giant plant response rating / Plant response rating, Foxtail, Giant: postemergence; for Foxtail, Giant plant response rating: 62 g ai/ha, scale 0 to 100
Summary of the method: (§1)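 Herbicidal effect is expressed as percent visual control (0–100) judged against untreated plants 13 to 15 days after treatment in the greenhouse. Preemergence pots contained seeds in a soil–sand blend; postemergence plants, 2–18 cm tall, grew in peat-based planting medium.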

waterhemp [2] = assay: Test C preemergence; format: in vivo, Amaranthus rudis; conditions: preemergence; for Plant response rating, Waterhemp: 125 g ai/ha, scale 0 to 100, 0 = no effect, 100 = complete control
Summary of the method: as §1

johnsongrass = assay: Test C postemergence; format: in vivo, Sorghum halepense; conditions: for Plant response rating (scale of 0 to 100 where 0 is no effect and 100 is complete control), Johnsongrass: Postemergence, 31 g ai/ha, visually evaluated after 13 to 15 days; for Johnsongrass plant response rating / Plant response rating, Johnsongrass: postemergence; for Johnsongrass plant response rating: 62 g ai/ha, scale 0 to 100
Summary of the method: as §1

foxtail, giant [3] = assay: Test A postemergence; format: in vivo, Setaria faberii
Summary of the method: (§2)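 Pre- and postemergence greenhouse test; loam+sand; cpd in non-phytotox. solvent/surfactant; post at 1–2 leaf, 2–10 cm; visual score ~10 d, 0 = none, 100 = complete control.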

foxtail, giant [4] = assay: Test C preemergence; format: in vivo, Setaria faberii; conditions: preemergence; for Plant response rating, Foxtail, Giant: 125 g ai/ha, scale 0 to 100, 0 = no effect, 100 = complete control
Summary of the method: as §1

oat, wild = assay: Test C postemergence; format: in vivo, Avena fatua; conditions: for Plant response rating (scale of 0 to 100 where 0 is no effect and 100 is complete control), Oat, Wild: Postemergence, 31 g ai/ha, visually evaluated after 13 to 15 days; for Oat, Wild plant response rating / Plant response rating, Oat, Wild: postemergence; for Oat, Wild plant response rating: 62 g ai/ha, scale 0 to 100
Summary of the method: as §1

morningglory = assay: Test A postemergence; format: in vivo, Ipomoea spp.; conditions: Postemergence
Summary of the method: as §2

foxtail, giant [5] = assay: Test A preemergence; format: in vivo, Setaria faberii; conditions: preemergence; for Foxtail, Giant plant response rating (0 to 100 scale): 125 g ai/ha, visual injury approx. 10 days after treatment; for Foxtail, Giant plant response rating: 500 g ai/ha, visual injury after approx. 10 days, 0 to 100 scale (0 no effect, 100 complete control)
Summary of the method: as §2

waterhemp [6] = assay: Test C postemergence; format: in vivo, Amaranthus rudis; conditions: postemergence; for Plant response rating, Waterhemp: 250 g ai/ha, scale 0 to 100 (0 no effect, 100 complete control); for Waterhemp plant response rating: scale 0 to 100
Summary of the method: as §1

galium = assay: Test C postemergence; format: in vivo, Galium aparine; conditions: for Plant response rating (scale of 0 to 100 where 0 is no effect and 100 is complete control), Galium: Postemergence, 31 g ai/ha, visually evaluated after 13 to 15 days; for Galium plant response rating / Plant response rating, Galium: postemergence; for Galium plant response rating: 62 g ai/ha, scale 0 to 100
Summary of the method: as §1

crabgrass, large = assay: Test C preemergence; format: in vivo, Digitaria sanguinalis; conditions: preemergence; for Plant response rating, Crabgrass, Large: 125 g ai/ha, scale 0 to 100, 0 = no effect, 100 = complete control
Summary of the method: as §1

chickweed = assay: Test C postemergence; format: in vivo, Stellaria media; conditions: for Plant response rating (scale of 0 to 100 where 0 is no effect and 100 is complete control), Chickweed: Postemergence, 31 g ai/ha, visually evaluated after 13 to 15 days; for Chickweed plant response rating / Plant response rating, Chickweed: postemergence; for Chickweed plant response rating: 62 g ai/ha, scale 0 to 100
Summary of the method: as §1

ducksalad = assay: Test B flood; format: in vivo, Heteranthera limosa; conditions: 250 g ai/ha, visual rating on 0 to 100 scale (0 no effect, 100 complete control), 13 to 15 days
Summary of the method: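 Paddy-water application: seedlings at 2-leaf stage, flood depth 3 cm maintained for the test duration. Evaluation after 13–15 days in the greenhouse by eye relative to controls; 0–100 scale.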

[7] = 250 g ai/ha, scale 0 to 100 (0 no effect, 100 complete control)
[8] = 125 g ai/ha, scale 0 to 100, 0 no effect, 100 complete control
[9] = 31 g ai/ha, visual rating, scale 0 to 100 (0 no effect, 100 complete control), 13 to 15 days
[10] = 62 g ai/ha, scale 0 to 100 (0 no effect, 100 complete control), 13 to 15 days
[11] = 250 g ai/ha, scale 0 to 100, 0 is no effect, 100 is complete control
[12] = Postemergence, 500 g ai/ha, 0 to 100 scale (0 no effect, 100 complete control)
[13] = postemergence, 125 g ai/ha, about 10 days, visual rating on 0 to 100 scale (0 no effect, 100 complete control)
[14] = 125 g ai/ha, 0 to 100 scale, 0 no effect, 100 complete control
[15] = 500 g ai/ha, 0 to 100 scale (0 no effect, 100 complete control)

For `CCCc1cc(C(=O)NC(C)C)nn1Cc1ccnc(C(F)(F)F)c1` [Compound 186], which “Plant response rating (scale of 0 to 100 where 0 is no effect and 100 is complete control), Foxtail, Giant” value (foxtail, giant [1]) is on record?
Its value is 5.

And the “Foxtail, Giant plant response rating” value (foxtail, giant [1])?
The value was 30.

And the “Plant response rating, Foxtail, Giant” value (foxtail, giant [1]; [7])?
The value was 75.

And the “Plant response rating, Foxtail, Giant” value (foxtail, giant [1]; [8])?
The value was 60.

What about the “Waterhemp plant response rating” value (waterhemp [2]; [9]) of the same compound?
The value was 100.

And the “Waterhemp plant response rating” value (waterhemp [2]; [10])?
Its value is 100.

And the “Plant response rating, Waterhemp” value (waterhemp [2]; 13 to 15 days)?
Its value is 100.

And the “Waterhemp plant response rating” value (waterhemp [2]; [11])?
The value was 100.

And the “Plant response rating (scale of 0 to 100 where 0 is no effect and 100 is complete control), Johnsongrass” value (johnsongrass)?
The value was 5.

What about the “Johnsongrass plant response rating” value (johnsongrass) of the same compound?
The value was 5.

What about the “Plant response rating, Johnsongrass” value (johnsongrass; [7]) of the same compound?
Its value is 95.

What about the “Plant response rating, Johnsongrass” value (johnsongrass; [8]) of the same compound?
Its value is 5.

And the “Foxtail, Giant plant response rating” value (foxtail, giant [3]; [12])?
The value was 90.

And the “Foxtail, Giant plant response rating” value (foxtail, giant [3]; [13])?
Its value is 90.

What about the “Foxtail, Giant plant response rating” value (foxtail, giant [4]; [9]) of the same compound?
Its value is 100.

And the “Foxtail, Giant plant response rating” value (foxtail, giant [4]; [10])?
The value was 100.

And the “Plant response rating, Foxtail, Giant” value (foxtail, giant [4]; 13 to 15 days)?
Its value is 100.

What about the “Foxtail, Giant plant response rating” value (foxtail, giant [4]; [11]) of the same compound?
Its value is 100.

And the “Plant response rating (scale of 0 to 100 where 0 is no effect and 100 is complete control), Oat, Wild” value (oat, wild)?
The value was 10.

And the “Oat, Wild plant response rating” value (oat, wild)?
Its value is 35.

What about the “Plant response rating, Oat, Wild” value (oat, wild; [7]) of the same compound?
Its value is 80.

What about the “Plant response rating, Oat, Wild” value (oat, wild; [8]) of the same compound?
The value was 35.

What about the “Morningglory plant response rating” value (morningglory; [14]) of the same compound?
Its value is 0.

And the “Morningglory plant response rating” value (morningglory; [15])?
Its value is 100.

And the “Foxtail, Giant plant response rating (0 to 100 scale)” value (foxtail, giant [5])?
Its value is 100.

What about the “Foxtail, Giant plant response rating” value (foxtail, giant [5]) of the same compound?
Its value is 100.

And the “Plant response rating, Waterhemp” value (waterhemp [6])?
Its value is 90.

And the “Waterhemp plant response rating” value (waterhemp [6])?
The value was 60.

What about the “Plant response rating (scale of 0 to 100 where 0 is no effect and 100 is complete control), Galium” value (galium) of the same compound?
The value was 70.

What about the “Galium plant response rating” value (galium) of the same compound?
The value was 80.

And the “Plant response rating, Galium” value (galium; [7])?
The value was 100.

And the “Plant response rating, Galium” value (galium; [8])?
The value was 75.

What about the “Crabgrass, Large plant response rating” value (crabgrass, large; [9]) of the same compound?
The value was 100.

What about the “Crabgrass, Large plant response rating” value (crabgrass, large; [10]) of the same compound?
The value was 100.

What about the “Plant response rating, Crabgrass, Large” value (crabgrass, large; 13 to 15 days) of the same compound?
Its value is 100.

And the “Crabgrass, Large plant response rating” value (crabgrass, large; [11])?
Its value is 100.

And the “Plant response rating (scale of 0 to 100 where 0 is no effect and 100 is complete control), Chickweed” value (chickweed)?
The value was 70.

What about the “Chickweed plant response rating” value (chickweed) of the same compound?
The value was 80.

What about the “Plant response rating, Chickweed” value (chickweed; [7]) of the same compound?
Its value is 100.

What about the “Plant response rating, Chickweed” value (chickweed; [8]) of the same compound?
The value was 85.

What about the “Plant response rating, Ducksalad” value (ducksalad) of the same compound?
Its value is 80.

With `CCCc1cc(C(=O)NC2CC2)nn1Cc1cc(C(F)(F)F)nn1C` [Compound 202] as the compound, how does the “Plant response rating (scale of 0 to 100 where 0 is no effect and 100 is complete control), Foxtail, Giant” value (foxtail, giant [1]) read?
The value was 5.

What about the “Foxtail, Giant plant response rating” value (foxtail, giant [1]) of the same compound?
The value was 10.

What about the “Plant response rating, Foxtail, Giant” value (foxtail, giant [1]; [7]) of the same compound?
The value was 35.

And the “Plant response rating, Foxtail, Giant” value (foxtail, giant [1]; [8])?
Its value is 10.

What about the “Waterhemp plant response rating” value (waterhemp [2]; [9]) of the same compound?
Its value is 100.

What about the “Waterhemp plant response rating” value (waterhemp [2]; [10]) of the same compound?
The value was 100.

And the “Plant response rating, Waterhemp” value (waterhemp [2]; 13 to 15 days)?
The value was 100.

And the “Waterhemp plant response rating” value (waterhemp [2]; [11])?
The value was 100.

What about the “Plant response rating (scale of 0 to 100 where 0 is no effect and 100 is complete control), Johnsongrass” value (johnsongrass) of the same compound?
The value was 0.

And the “Johnsongrass plant response rating” value (johnsongrass)?
The value was 5.

And the “Plant response rating, Johnsongrass” value (johnsongrass; [7])?
Its value is 25.

And the “Plant response rating, Johnsongrass” value (johnsongrass; [8])?
Its value is 5.

And the “Foxtail, Giant plant response rating” value (foxtail, giant [3]; [12])?
The value was 90.

And the “Foxtail, Giant plant response rating” value (foxtail, giant [3]; [13])?
The value was 90.

What about the “Foxtail, Giant plant response rating” value (foxtail, giant [4]; [9]) of the same compound?
Its value is 100.

What about the “Foxtail, Giant plant response rating” value (foxtail, giant [4]; [10]) of the same compound?
The value was 100.

And the “Plant response rating, Foxtail, Giant” value (foxtail, giant [4]; 13 to 15 days)?
Its value is 100.

What about the “Foxtail, Giant plant response rating” value (foxtail, giant [4]; [11]) of the same compound?
Its value is 100.

What about the “Plant response rating (scale of 0 to 100 where 0 is no effect and 100 is complete control), Oat, Wild” value (oat, wild) of the same compound?
Its value is 5.

And the “Oat, Wild plant response rating” value (oat, wild)?
Its value is 5.

And the “Plant response rating, Oat, Wild” value (oat, wild; [7])?
Its value is 30.

What about the “Plant response rating, Oat, Wild” value (oat, wild; [8]) of the same compound?
Its value is 10.

What about the “Morningglory plant response rating” value (morningglory; [14]) of the same compound?
The value was 70.

What about the “Morningglory plant response rating” value (morningglory; [15]) of the same compound?
The value was 90.

And the “Foxtail, Giant plant response rating (0 to 100 scale)” value (foxtail, giant [5])?
The value was 100.

What about the “Foxtail, Giant plant response rating” value (foxtail, giant [5]) of the same compound?
The value was 100.

What about the “Plant response rating, Waterhemp” value (waterhemp [6]) of the same compound?
The value was 90.

And the “Waterhemp plant response rating” value (waterhemp [6])?
Its value is 85.

What about the “Plant response rating (scale of 0 to 100 where 0 is no effect and 100 is complete control), Galium” value (galium) of the same compound?
Its value is 65.

What about the “Galium plant response rating” value (galium) of the same compound?
Its value is 85.

What about the “Plant response rating, Galium” value (galium; [7]) of the same compound?
Its value is 95.

What about the “Plant response rating, Galium” value (galium; [8]) of the same compound?
The value was 90.

And the “Crabgrass, Large plant response rating” value (crabgrass, large; [9])?
The value was 100.

And the “Crabgrass, Large plant response rating” value (crabgrass, large; [10])?
Its value is 100.

And the “Plant response rating, Crabgrass, Large” value (crabgrass, large; 13 to 15 days)?
The value was 100.

And the “Crabgrass, Large plant response rating” value (crabgrass, large; [11])?
Its value is 100.

And the “Plant response rating (scale of 0 to 100 where 0 is no effect and 100 is complete control), Chickweed” value (chickweed)?
The value was 75.

And the “Chickweed plant response rating” value (chickweed)?
Its value is 80.

What about the “Plant response rating, Chickweed” value (chickweed; [7]) of the same compound?
Its value is 85.

What about the “Plant response rating, Chickweed” value (chickweed; [8]) of the same compound?
Its value is 80.

And the “Plant response rating, Ducksalad” value (ducksalad)?
The value was 95.

Reference: patent US20150105252A1, “SUBSTITUTED PYRAZOLES AS HERBICIDES” (E I DU PONT DE NEMOURS AND COMPANY, priority 2013, published 2015)
